For 18 molecules, IC50 results are on record in patent US20230365563A1, “QUINAZOLINE COMPOUND AND APPLICATION THEREOF” (SHANGHAI PHARMACEUTICALS HOLDING CO., LTD., priority 2020, published 2023).

Counter-ions that a name gives are not always drawn.

The target in one assay is T1, KRAS-G12D and SOS1 (Homo sapiens, UniProt P01116, G12D).
T1 construct: purchased
Description: Inhibition of KRAS-G12D/SOS1 binding (Cisbio binding kit, 665/615 ratio), Effect Embodiment A. Conditions: read-out: GTP-KRAS-G12D:SOS1 IC50. In a few lines: (§1)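 Compounds underwent 3-fold dilution from their storage solutions (11 points), were transferred to assay wells in duplicate with DMSO held at 1% final, and were briefly centrifuged.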

A further assay addresses T2, KRAS_WT and SOS1 (Homo sapiens, UniProt P01116).
T2 construct: purchased
Description: Inhibition of KRAS_WT/SOS1 binding (Cisbio binding kit, 665/615 ratio), Effect Embodiment C. Conditions: read-out: GTP-KRAS-WT:SOS1 IC50. In outline:
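Compounds tested as 3-fold, 11-point dilutions in duplicate at 1% DMSO final against the KRAS_WT/SOS1 binding system. IC50 derived by nonlinear regression fit.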

For another assay, the target named is T3, KRAS_G12D and cRAF (Homo sapiens, UniProt P01116, G12D).
T3 construct: purchased
T3 sequence (P01116 1-188 isoform P01116-2 G12D): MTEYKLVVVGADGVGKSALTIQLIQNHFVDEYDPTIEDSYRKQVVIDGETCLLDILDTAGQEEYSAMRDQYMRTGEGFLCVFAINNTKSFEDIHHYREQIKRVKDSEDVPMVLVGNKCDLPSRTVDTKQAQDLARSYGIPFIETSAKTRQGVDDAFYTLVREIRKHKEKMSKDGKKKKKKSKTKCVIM
The experiment in a line: Inhibition of KRAS_G12D/cRAF binding (Cisbio binding kit, 665/615 ratio), Effect Embodiment B. Conditions: read-out: GTP-KRAS-G12D:CRAF IC50. In outline:
as §1

T1 sequence (P01116 1-188 isoform P01116-2 G12D): as above
T2 sequence (P01116 1-188 isoform P01116-2): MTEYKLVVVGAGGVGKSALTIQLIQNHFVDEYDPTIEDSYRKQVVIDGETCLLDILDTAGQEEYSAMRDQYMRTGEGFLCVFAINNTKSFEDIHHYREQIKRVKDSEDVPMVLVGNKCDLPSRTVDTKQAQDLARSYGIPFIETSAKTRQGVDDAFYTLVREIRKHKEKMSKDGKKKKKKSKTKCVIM

Regarding `C[C@@H]1C[C@@H](COc2nc(N3CC4CCC(C3)N4)c3cc(Cl)c(-c4cc(O)cc5ccccc45)c(F)c3n2)N(C)C1` (single isomer, unassigned) [Compound 171, (R or S)-4-(4-((1R,5S)-3,8-diazabicyclo[3.2.1]octan-3-yl)-6-chloro-2-((2S,4R)-1.4-dimethylpyrrolidin-2-yl)methoxy)-8-fluoroquinazolin-7-yl)naphthalen-2-ol dihydrochloride], the IC50 at KRAS-G12D and SOS1 worked out at 24.8 nM; at KRAS_WT and SOS1, 395 nM; at KRAS_G12D and cRAF it was 60.4 nM.
The matching figures for `C[C@@H](COc1nc(N2CC3CCC(C2)N3)c2cc(Cl)c(-c3cc(O)cc4ccccc34)c(F)c2n1)CN1CCOC[C@H]1C` (single isomer, unassigned) [Compound 239, 4-((S or R)-4-((1R,5S)-3,8-diazacyclo[3.2.1]octyl-3-yl)-6-chloro-8-fluoro-2-((R)-2-methyl-3-((R)-3-methylmorpholinyl)propoxy)quinazolin-7-yl)naphthalen-2-ol formate]: 15.3 nM, 496 nM and 18.3 nM.
As to `CN1CCC[C@H]1COc1nc(N2C[C@H]3CC[C@@H](C2)N3)c2ccc(-c3cc(O)cc4ccccc34)c(F)c2n1` [Compound 144, 4-(4-((1R,5S)-3,8-diazabicyclo[3.2.1]octan-3-yl)-8-fluoro-2-((S)-1-methylpyrrolidin-2-yl)methoxy)quinazolin-7-yl)naphthalen-2-ol tritrifluoroacetate], the 50% inhibitory concentration (IC50) at KRAS-G12D and SOS1 came to 14.4 nM; at KRAS_WT and SOS1, 180 nM; at KRAS_G12D and cRAF, 17.9 nM.
The like results for `C[C@@H](COc1nc(N2CC3CCC(C2)N3)c2cc(Cl)c(-c3cc(O)cc4ccccc34)c(F)c2n1)CN1C[C@H](C)OC[C@H]1C` (single isomer, unassigned) [Compound 237, 4-((S or R)-4-((1R,5S)-3,8-diazacyclo[3.2.1]octan-3-yl)-6-chloro-2-((R)-3-((2S,5R)-2,5-dimethylmorpholinyl)-2-methylpropoxy)-8-fluoroquinazolin-7-yl)naphthalen-2-ol formate] were, in that order, 19.5 nM, 569 nM and 18.6 nM.
The matching figures for `CC(COc1nc(N2CC3CCC(C2)N3)c2cc(Cl)c(-c3cc(O)cc4ccccc34)c(F)c2n1)CN1C2CCC1COC2` (single isomer, unassigned) [Compound 178a, 4-((7R or 7S)-2-((2R or 2S)-3-(3-oxa-8-azabicyclo[3.2.1]octan-8-yl)-2-methylpropoxy)-4-((1R,5S)-3,8-diazabicyclo[3.2.1]octan-3-yl)-6-chloro-8-fluoroquinazolin-7-yl)naphthalen-2-ol diformate]: 21.6 nM, 836 nM and 18.1 nM.
As for `CO[C@@H]1C[C@@H](COc2nc(N3CC4CCC(C3)N4)c3cnc(-c4cc(O)cc5ccccc45)c(F)c3n2)N(C)C1` [Compound 134, 4-(4-((1R,5S)-3,8-diazabicyclo[3.2.1]octan-3-yl)-8-fluoro-2-((2S,4R)-4-methxoy-1-methylpyrrolidin-2-yl)methoxy)pyridinyl[4,3-d]pyrimidin-7-yl)naphthalen-2-ol diformate], the IC50 is 17.9 nM on KRAS-G12D and SOS1; 498 nM on KRAS_WT and SOS1; 26.2 nM at KRAS_G12D and cRAF.
The like results for `CCC(COc1nc(N2CC3CCC(C2)N3)c2cc(Cl)c(-c3cc(O)cc4ccccc34)c(F)c2n1)CN1C2CCC1COC2` (single isomer, unassigned) [Compound 201b, (4S or 4R)-4-(2-((2S or 2R)-2-(3-oxa-8-azabicyclo[3.2.1]octan-8-ylmethyl)butoxy)-4-((1R,5S)-3,8-diazabicyclo[3.2.1]octan-3-yl)-6-chloro-8-fluoroquinazolin-7-yl)naphthalen-2-ol formate] were, in that order, 54.6 nM, 2180 nM and 45.8 nM.
The matching figures for `CN1CCC[C@H]1COc1nc(N2CC3CCC(C2)N3)c2cc(Cl)c(-c3cc(O)cc4ccccc34)c(F)c2n1` (single isomer, unassigned) [Compound 39a, (S or R)-4-(4-((1R,5S)-3,8-diazabicyclo[3.2.1]octan-3-yl)-6-chloro-8-fluoro-2-((S)-1-methylpyrrolidin-2-yl)methoxy)quinazolin-7-yl)naphthalen-2-ol]: 27.7 nM, 342 nM and 26.2 nM.
With `Oc1cc(-c2c(Cl)cc3c(N4CC5CCC(C4)N5)nc(OC[C@@]45CCCN4C[C@H](F)C5)nc3c2F)c2ccccc2c1` (single isomer, unassigned) [Compound 176, 4-((R or S)-4-((1R,5S)-3,8-diazabicyclo[3.2.1]octan-3-yl)-6-chloro-8-fluoro-2-((2R,7aS)-2-fluorotetrahydro-1H-pyrrolin-7a(5H)-yl)methoxy)quinazolin-7-yl)naphthalenol formate], the IC50 turned out to be 13.6 nM on KRAS-G12D and SOS1; 28 nM on KRAS_WT and SOS1; 6.98 nM at KRAS_G12D and cRAF.
As to `N=C(N)NCCCOc1nc(N2CC3CCC(C2)N3)c2cc(Cl)c(-c3cc(O)cc4ccccc34)c(F)c2n1` (single isomer, unassigned) [Compound 150, 1-(3-((4-((1R,5S)-3,8-diazabicyclo[3.2.1]octan-3-yl)-6-chloro-8-fluoro-7-((S or R)-3-hydroxynaphthalen-1-yl)quinazolin-2-yl)oxy)propyl)guanidine diformate], the 50% inhibitory concentration (IC50) at KRAS-G12D and SOS1 was 39.2 nM; at KRAS_WT and SOS1, 2040 nM; at KRAS_G12D and cRAF, 114 nM.
The matching figures for `C[C@@H]1COC[C@@H](C)N1CCCOc1nc(N2C[C@H]3CC[C@@H](C2)N3)c2cc(Cl)c(-c3cc(O)cc4ccccc34)c(F)c2n1` (single isomer, unassigned) [Compound 164, (R or S)-4-(4-((1R,5S)-3,8-diazabicyclo[3.2.1]octan-3-yl)-6-chloro-2-(3-((3R,5R)-3,5-dimethylmorpholinyl)propoxy)-8-fluoroquinazolin-7-yl)naphthalen-2-ol dihydrochloride]: 43.9 nM, 2530 nM and 115 nM.
The like results for `NCCCOc1nc(N2CC3CCC(C2)N3)c2cc(Cl)c(-c3cc(O)cc4ccccc34)c(F)c2n1` (single isomer, unassigned) [Compound 94, 4-((S or R)-2-(3-aminopropoxy)-4-((1R,5S)-3,8-diazabicyclo[3.2.1]octan-3-yl)-6-chloro-8-fluoroquinazolin-7-yl)naphthalen-2-ol dihydrochloride] were, in that order, 53.2 nM, 5220 nM and 164 nM.
The matching figures for `C[C@@H]1C[C@@H](COc2nc(N3CC4CCC(C3)N4)c3cnc(-c4cc(O)cc5ccccc45)c(F)c3n2)N(C)C1` [Compound 142, 4-(4-((1R,5S)-3,8-diazabicyclo[3.2.1]octan-3-yl)-2-((2S,4R)-1,4-methylpyrrolidin-2-yl)methoxy)-8-fluoropyridinyl[4,3-d]pyrimidin-7-yl)naphthalen-2-ol diformate]: 16 nM, 394 nM and 30.5 nM.
Consider `Oc1cc(-c2c(Cl)cc3c(N4CC5CCC(C4)N5)nc(OCCC4(N5CCCC5)CC4)nc3c2F)c2ccccc2c1` (single isomer, unassigned) [Compound 117, 4-((S or R)-4-((1R,5S)-3,8-diazabicyclo[3.2.1]octan-3-yl)-6-chloro-8-fluoro-2-(2-(1-(pyrrolidin-1-yl)cyclopropyl)ethoxy)quinazolin-7-yl)naphthalen-2-ol dihydrochloride], for which the IC50 at KRAS-G12D and SOS1 was found to be 59.3 nM; on KRAS_WT and SOS1, 2130 nM; on KRAS_G12D and cRAF, 134 nM.
The like results for `Oc1cc(-c2c(Cl)cc3c(N4CC5CCC(C4)N5)nc(OCCN4C5CCC4COC5)nc3c2F)c2ccccc2c1` (single isomer, unassigned) [Compound 124, 4-((7S or R)-2-(2-(3-oxa-8-azabicyclo[3.2.1]octan-8-yl)-ethoxy)-4-((1R,5S)-3,8-diazabicyclo[3.2.1]octan-3-yl)-6-chloro-8-fluoroquinazolin-7-yl)naphthalen-2-ol dihydrochloride] were, in that order, 75.8 nM, 2890 nM and 149 nM.
The like results for `CCc1cccc2cc(O)cc(-c3c(F)cc4c(N5CC6CCC(C5)N6)nc(OC[C@@]56CCCN5C[C@H](F)C6)nc4c3F)c12` (single isomer, unassigned) [Compound 285a, (S or R)-4-(4-((1R,5S)-3,8-diazacyclo[3.2.1]octan-3-yl)-6,8-difluoro-2-((2R,7aS)-2-fluorotetrahydro-1H-pyrrolidin-7a(5H-yl)methoxy)quinazolin-7-yl)-5-ethylnaphthalen-2-ol dihydrochloride] were, in that order, 16.6 nM, 18.4 nM and 9.12 nM.
On to `CN1CCC[C@H]1COc1nc(N2C[C@H]3C=C[C@@H](C2)N3)c2cnc(-c3cc(O)cc4ccccc34)c(F)c2n1` [Compound 159, 4-(4-((1R,5S)-3,8-diazabicyclo[3.2.1]oct-6-en-3-yl)-8-fluoro-2-(((S)-1-methylpyrrolidin-2-yl)methoxy)pyrido[4,3-d]pyrimidin-7-yl)naphthalen-2-ol diformate], for which the IC50 at KRAS-G12D and SOS1 was determined as 30.8 nM; on KRAS_WT and SOS1 it was 196 nM; on KRAS_G12D and cRAF, 55.2 nM.
The matching figures for `Oc1cc(-c2c(Cl)cc3c(N4C[C@H]5CC[C@@H](C4)N5)nc(OCCCN4C[C@H]5C[C@@H]4CO5)nc3c2F)c2ccccc2c1` (single isomer, unassigned) [Compound 169, (R or S)-4-(2-(3-((1R,4R)-2-oxa-5-azabicyclo[2.2.1]heptan-5-yl)propoxy)-4-((1R,5S)-3,8-diazabicyclo[3.2.1]octan-3-yl)-6-chloro-8-fluoroquinazolin-7-yl)naphthalen-2-ol dihydrochloride]: 39.2 nM, 1870 nM and 71.3 nM.

A word on the IC50: it is the concentration at which inhibition is half-maximal.
